Patent publication US8426437B2, “Pyrroloquinoline derivatives and their use as protein kinases inhibitors” (Pierre Fabre Medicament, priority 2005, dated 2013)

Assays:
Assay type in all cases: biochemical
MAPK2 (h) = target: T1, MAPK2 (h) (Homo sapiens, UniProt P28482); assay: Upstate kinase panel: MAPK2
T1 construct: purchased Upstate
Description: (§1) These kinases are produced by Upstate and screened according to the respective protocols indicated by the supplier (http://www.upstate.com/features/kp_protocols.asp). Examples 1, 12, 166 and 238 were tested at a concentration of 20 μM, 10 μM, 1 μM and 1 μM respectively in the presence of 10 μM of ATP for examples 1 and 12 and at the concentrations of ATP shown in parentheses for examples 166 and 238. The results shown in Table VII correspond to percentage inhibition of the kinase tested in the presence of the compound, relative to a control effected without the compound.

KDR (h) = target: T2, KDR (h) (Homo sapiens, UniProt P35968); assay: Upstate kinase panel: KDR
T2 construct: purchased Upstate
T2 sequence (P35968 20-1356): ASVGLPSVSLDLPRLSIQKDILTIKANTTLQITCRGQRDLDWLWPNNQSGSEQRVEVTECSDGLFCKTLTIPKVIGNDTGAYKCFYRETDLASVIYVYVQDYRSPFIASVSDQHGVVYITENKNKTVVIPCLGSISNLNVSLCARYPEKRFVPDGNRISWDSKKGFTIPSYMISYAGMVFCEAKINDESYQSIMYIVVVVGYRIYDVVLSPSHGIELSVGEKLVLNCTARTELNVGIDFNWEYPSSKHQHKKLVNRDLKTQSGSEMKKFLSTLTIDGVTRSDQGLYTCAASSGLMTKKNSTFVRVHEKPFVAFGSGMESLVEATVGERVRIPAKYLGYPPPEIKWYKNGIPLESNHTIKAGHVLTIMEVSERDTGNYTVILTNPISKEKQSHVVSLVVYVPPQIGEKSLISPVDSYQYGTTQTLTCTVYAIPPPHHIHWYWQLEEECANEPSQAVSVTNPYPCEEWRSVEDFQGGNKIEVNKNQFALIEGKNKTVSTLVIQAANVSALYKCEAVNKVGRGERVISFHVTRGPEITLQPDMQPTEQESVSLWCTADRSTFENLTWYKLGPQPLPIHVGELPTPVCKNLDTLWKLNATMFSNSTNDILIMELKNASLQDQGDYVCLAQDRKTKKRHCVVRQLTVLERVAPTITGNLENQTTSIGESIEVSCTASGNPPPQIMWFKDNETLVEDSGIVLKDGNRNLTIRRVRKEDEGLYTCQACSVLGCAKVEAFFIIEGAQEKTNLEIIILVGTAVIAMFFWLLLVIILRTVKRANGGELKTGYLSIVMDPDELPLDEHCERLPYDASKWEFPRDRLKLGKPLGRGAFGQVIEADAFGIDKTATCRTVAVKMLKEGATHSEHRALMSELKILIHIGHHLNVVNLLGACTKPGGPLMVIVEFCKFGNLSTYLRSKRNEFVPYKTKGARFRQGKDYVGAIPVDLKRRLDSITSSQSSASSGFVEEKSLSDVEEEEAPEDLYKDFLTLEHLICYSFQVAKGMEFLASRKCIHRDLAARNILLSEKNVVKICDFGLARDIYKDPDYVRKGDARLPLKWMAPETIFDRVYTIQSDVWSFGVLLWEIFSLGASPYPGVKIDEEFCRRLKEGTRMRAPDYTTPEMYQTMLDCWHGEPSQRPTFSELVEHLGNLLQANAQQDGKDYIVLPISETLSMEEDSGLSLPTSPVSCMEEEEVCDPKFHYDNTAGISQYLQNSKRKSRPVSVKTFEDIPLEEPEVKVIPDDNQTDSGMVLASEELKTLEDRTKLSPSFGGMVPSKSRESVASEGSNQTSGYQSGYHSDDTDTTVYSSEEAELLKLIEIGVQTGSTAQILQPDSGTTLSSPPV
Description: as §1

Flt3 (h) = target: T3, Flt3 (h) (Homo sapiens, UniProt P36888); assay: Upstate kinase panel: Flt3
T3 construct: purchased Upstate
T3 sequence (P36888 27-993): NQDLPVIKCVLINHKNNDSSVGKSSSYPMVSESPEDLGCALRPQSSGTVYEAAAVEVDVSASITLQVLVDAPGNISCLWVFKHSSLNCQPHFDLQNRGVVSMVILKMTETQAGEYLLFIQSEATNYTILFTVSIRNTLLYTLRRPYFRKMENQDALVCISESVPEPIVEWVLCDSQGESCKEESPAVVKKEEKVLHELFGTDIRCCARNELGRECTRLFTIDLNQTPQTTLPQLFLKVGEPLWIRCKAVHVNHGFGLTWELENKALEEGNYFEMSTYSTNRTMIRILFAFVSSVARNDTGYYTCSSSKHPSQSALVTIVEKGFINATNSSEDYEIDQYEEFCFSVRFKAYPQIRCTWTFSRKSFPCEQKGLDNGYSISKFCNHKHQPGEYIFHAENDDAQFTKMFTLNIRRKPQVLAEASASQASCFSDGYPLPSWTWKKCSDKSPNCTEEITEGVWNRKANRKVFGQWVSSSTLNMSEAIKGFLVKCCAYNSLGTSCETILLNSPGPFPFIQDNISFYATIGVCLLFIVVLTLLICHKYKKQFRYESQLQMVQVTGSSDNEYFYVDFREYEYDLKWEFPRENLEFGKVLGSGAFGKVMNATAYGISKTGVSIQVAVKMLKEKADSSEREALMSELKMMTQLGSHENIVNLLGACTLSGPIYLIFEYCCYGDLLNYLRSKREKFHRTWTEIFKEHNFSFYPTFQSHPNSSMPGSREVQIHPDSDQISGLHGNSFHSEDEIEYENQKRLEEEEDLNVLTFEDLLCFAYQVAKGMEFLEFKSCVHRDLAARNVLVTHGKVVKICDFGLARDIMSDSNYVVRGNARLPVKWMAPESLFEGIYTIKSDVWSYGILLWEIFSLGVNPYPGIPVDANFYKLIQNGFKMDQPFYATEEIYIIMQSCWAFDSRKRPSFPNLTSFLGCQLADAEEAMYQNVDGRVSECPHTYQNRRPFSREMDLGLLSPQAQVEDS
Description: as §1

ROCK-II (h) = target: T4, ROCK-II (h) (Homo sapiens, UniProt O75116); assay: Upstate kinase panel: ROCK-II
T4 construct: purchased Upstate
T4 sequence (O75116 whole entry): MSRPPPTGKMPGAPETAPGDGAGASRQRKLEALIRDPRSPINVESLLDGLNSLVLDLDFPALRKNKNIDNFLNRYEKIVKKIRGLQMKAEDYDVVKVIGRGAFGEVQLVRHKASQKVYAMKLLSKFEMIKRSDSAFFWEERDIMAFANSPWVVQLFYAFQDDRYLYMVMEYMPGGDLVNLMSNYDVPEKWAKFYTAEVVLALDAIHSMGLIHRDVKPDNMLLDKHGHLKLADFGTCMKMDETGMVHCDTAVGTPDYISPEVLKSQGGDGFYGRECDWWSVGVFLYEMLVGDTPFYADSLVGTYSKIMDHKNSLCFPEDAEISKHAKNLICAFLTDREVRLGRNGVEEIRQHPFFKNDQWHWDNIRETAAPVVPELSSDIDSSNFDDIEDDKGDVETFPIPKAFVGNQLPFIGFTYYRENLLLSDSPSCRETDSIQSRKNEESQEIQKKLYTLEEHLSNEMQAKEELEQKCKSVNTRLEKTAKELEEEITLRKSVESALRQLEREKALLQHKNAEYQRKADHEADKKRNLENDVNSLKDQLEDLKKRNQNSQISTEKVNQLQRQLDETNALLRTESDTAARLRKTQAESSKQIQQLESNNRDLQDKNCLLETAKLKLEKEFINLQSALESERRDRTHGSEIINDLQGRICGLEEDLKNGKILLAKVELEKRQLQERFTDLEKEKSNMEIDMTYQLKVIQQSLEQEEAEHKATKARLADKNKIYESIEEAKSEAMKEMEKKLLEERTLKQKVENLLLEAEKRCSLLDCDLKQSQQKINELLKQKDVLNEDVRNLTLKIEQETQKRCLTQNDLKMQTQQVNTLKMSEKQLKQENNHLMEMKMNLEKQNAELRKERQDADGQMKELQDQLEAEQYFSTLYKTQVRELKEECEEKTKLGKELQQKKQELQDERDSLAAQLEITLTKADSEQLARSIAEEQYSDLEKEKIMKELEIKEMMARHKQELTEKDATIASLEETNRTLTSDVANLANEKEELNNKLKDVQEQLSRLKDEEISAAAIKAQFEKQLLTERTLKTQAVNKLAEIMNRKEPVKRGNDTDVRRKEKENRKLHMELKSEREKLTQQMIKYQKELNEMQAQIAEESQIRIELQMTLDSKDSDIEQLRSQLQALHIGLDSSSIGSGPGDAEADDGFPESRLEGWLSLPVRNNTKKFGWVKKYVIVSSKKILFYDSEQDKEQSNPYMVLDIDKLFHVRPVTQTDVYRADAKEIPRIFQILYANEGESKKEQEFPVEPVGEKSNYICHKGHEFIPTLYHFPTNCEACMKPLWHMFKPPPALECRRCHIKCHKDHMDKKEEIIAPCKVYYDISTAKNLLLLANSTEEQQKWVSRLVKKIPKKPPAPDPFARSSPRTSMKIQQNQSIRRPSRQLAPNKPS
Description: as §1

Aurora-A (h) = target: T5, Aurora-A (h) (Homo sapiens, UniProt O14965); assay: Upstate kinase panel: Aurora-A
T5 construct: purchased Upstate
T5 sequence (O14965 1-403): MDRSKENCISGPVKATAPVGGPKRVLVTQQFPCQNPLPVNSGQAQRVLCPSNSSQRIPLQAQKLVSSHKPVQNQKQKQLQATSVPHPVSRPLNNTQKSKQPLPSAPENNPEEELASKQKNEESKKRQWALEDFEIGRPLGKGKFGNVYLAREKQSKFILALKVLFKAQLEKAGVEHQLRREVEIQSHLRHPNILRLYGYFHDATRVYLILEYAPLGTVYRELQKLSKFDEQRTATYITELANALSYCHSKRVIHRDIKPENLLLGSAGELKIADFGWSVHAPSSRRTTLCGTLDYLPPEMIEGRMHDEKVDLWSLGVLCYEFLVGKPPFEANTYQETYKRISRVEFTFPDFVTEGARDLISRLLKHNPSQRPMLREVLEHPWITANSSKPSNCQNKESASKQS
Description: as §1

IKKβ (h) = target: T6, IKKβ (h) (Homo sapiens, UniProt O14920); assay: Upstate kinase panel: IKKβ
T6 construct: purchased Upstate
T6 sequence (O14920 1-756): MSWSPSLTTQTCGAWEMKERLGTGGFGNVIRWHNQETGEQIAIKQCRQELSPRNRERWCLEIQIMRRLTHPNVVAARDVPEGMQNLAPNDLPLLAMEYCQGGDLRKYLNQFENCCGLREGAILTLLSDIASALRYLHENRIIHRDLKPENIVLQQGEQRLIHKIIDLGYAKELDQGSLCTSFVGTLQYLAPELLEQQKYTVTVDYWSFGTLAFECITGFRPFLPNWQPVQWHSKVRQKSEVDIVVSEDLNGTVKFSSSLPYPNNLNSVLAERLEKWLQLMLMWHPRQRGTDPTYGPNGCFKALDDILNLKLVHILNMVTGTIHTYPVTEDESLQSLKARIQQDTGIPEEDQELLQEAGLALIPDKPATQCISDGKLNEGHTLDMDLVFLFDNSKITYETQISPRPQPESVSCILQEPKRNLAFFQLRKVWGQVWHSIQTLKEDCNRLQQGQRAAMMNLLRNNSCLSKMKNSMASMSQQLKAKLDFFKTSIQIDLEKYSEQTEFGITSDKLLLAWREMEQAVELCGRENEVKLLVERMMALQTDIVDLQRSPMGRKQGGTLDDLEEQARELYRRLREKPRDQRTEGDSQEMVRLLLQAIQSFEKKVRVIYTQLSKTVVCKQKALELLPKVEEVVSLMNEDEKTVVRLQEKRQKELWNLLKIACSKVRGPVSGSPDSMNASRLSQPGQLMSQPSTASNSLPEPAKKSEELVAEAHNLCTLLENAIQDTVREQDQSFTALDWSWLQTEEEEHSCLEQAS
Description: as §1

[1] = compound 20 μM, 10 μM ATP, read-out: % inhibition at 20 μMol
[2] = compound 10 μM, 10 μM ATP, read-out: % inhibition at 10 μMol
[3] = compound 1 μM, ATP (15), read-out: % inhibition at 1 μMol

T1 sequence (P28482 whole entry): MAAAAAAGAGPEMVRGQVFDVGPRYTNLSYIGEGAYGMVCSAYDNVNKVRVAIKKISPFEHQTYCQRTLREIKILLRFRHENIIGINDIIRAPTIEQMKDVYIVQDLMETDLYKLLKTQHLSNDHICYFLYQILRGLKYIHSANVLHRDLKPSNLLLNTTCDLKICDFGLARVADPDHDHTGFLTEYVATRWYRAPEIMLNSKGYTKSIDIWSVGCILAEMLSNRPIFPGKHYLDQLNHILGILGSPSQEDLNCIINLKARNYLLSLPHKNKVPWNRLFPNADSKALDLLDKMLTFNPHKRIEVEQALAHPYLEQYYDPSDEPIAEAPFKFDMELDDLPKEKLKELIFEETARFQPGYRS

CCOC(=O)c1c[nH]c2c(=O)[nH]c3ccccc3c12 [Compound 1, 4-Oxo-4,5-dihydro-3H-pyrrolo[2,3-c]quinoline-1-ethyl carboxylate]
inhibition at 20 µM (MAPK2 (h); [1]): 1%
inhibition at 20 µM (KDR (h); [1]): 100%
inhibition at 20 µM (Flt3 (h); [1]): 91%
inhibition at 20 µM (ROCK-II (h); [1]): 8%
inhibition at 20 µM (Aurora-A (h); [1]): 16%
inhibition at 20 µM (IKKβ (h); [1]): 22%

CCOC(=O)c1c[nH]c2c(=O)[nH]c3ccc(S(=O)(=O)Nc4ccc(F)cc4)cc3c12 [Compound 12, 8-(4-Fluorophenylsulfamoyl)-4-oxo-4,5-dihydro-3H-pyrrolo[2,3-c]quinoline-1-ethyl carboxylate]
inhibition at 10 µM (MAPK2 (h); [2]): 3%
inhibition at 10 µM (KDR (h); [2]): 69%
inhibition at 10 µM (Flt3 (h); [2]): 51%
inhibition at 10 µM (ROCK-II (h); [2]): 17%
inhibition at 10 µM (Aurora-A (h); [2]): 94%
inhibition at 10 µM (IKKβ (h); [2]): 0%

CCOC(=O)c1c[nH]c2c(=O)[nH]c3ccc(-c4cccc(S(C)(=O)=O)c4)cc3c12 [Compound 238, 8-(3-Methanesulfonyl-phenyl)-4-oxo-4,5-dihydro-3H-pyrrolo[2,3-c]quinoline-1-ethyl carboxylate]
inhibition at 1 µM (MAPK2 (h); compound 1 μM, ATP (155), read-out: % inhibition at 1 μMol): 0%
inhibition at 1 µM (KDR (h); compound 1 μM, ATP (90), read-out: % inhibition at 1 μMol): 21%
inhibition at 1 µM (Flt3 (h); compound 1 μM, ATP (200), read-out: % inhibition at 1 μMol): 0%
inhibition at 1 µM (ROCK-II (h); [3]): 5%
inhibition at 1 µM (Aurora-A (h); [3]): 24%
inhibition at 1 µM (IKKβ (h); compound 1 μM, ATP (10), read-out: % inhibition at 1 μMol): 0%
